Results as given in ChEMBL document CHEMBL3124856, “Design, synthesis, and pharmacological evaluation of a novel series of pyridopyrazine-1,6-dione γ-secretase modulators” (J Med Chem, 2014).
Values after ≈ are worked out from the molar mass of the structure shown. Values belong to the molecule of their own block, whether it stands above or below them.

What was measured:
[1] = Apparent intrinsic clearance in rat liver microsomes; type: ADME; conditions: read-out: CLH(app)
[2] = Apparent intrinsic clearance in human liver microsomes; type: ADME; conditions: read-out: CLH(app)
[3] = test system: MDR1 (human); test: Efflux ratio of permeability in MDCK cells expressing human MDR1; type: ADME, cell-based, Canis lupus familiaris; conditions: dog
[4] = biological target: Gamma-secretase; test: Modulation of gamma-secretase (unknown origin) expressed in CHO cells overexpressing human wild type APP assessed as reduction of amyloid beta 42 level after 24 hrs by ELISA; type: cell-based
[5] = biological target: T1, Cytochrome P450 1A2 (Homo sapiens, UniProt P05177); test: Inhibition of CYP1A2 (unknown origin); type: ADME
T1 sequence (P05177 whole entry): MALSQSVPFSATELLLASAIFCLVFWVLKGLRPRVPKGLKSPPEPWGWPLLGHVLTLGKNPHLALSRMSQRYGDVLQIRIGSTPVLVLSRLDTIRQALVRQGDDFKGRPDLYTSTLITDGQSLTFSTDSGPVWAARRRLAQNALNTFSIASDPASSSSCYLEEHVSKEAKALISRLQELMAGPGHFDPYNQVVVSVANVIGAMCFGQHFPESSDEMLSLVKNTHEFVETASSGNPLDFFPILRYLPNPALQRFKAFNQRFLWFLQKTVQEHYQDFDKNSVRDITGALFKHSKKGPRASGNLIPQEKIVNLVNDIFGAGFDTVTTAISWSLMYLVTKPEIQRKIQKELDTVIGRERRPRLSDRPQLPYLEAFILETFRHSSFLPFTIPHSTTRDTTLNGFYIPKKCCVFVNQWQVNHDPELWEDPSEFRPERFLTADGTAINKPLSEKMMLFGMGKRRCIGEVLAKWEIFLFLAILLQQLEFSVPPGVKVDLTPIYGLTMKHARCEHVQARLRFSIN

[6] = Aqueous kinetic solubility of the compound at pH 6.5; type: physicochemical; conditions: read-out: Kinetic_solubility
[7] = Lipophilicity, log D of the compound by shake flask method; type: physicochemical; conditions: octanol/water
[8] = Passive apparent permeability from apical to basolateral side in RRCK cells; type: ADME, cell-based, Canis lupus familiaris, MDCKII-LE; conditions: dog, MDCK
[9] = Fraction unbound in Hartley guinea pig brain; type: ADME, tissue-based, Cavia porcellus
[10] = Fraction unbound in Hartley guinea pig plasma; type: ADME, cell-free, Cavia porcellus
[11] = Drug uptake in Hartley guinea pig cerebrospinal fluid at 90 mg/kg, po after 4 hrs post dosing; type: ADME, organism-based, Cavia porcellus; design: dose 90 mg/kg, route oral; conditions: read-out: Drug uptake
[12] = Drug uptake in Hartley guinea pig cerebrospinal fluid at 30 mg/kg, po after 4 hrs post dosing; type: ADME, organism-based, Cavia porcellus; design: dose 30 mg/kg, route oral; conditions: read-out: Drug uptake
[13] = Drug uptake in Hartley guinea pig brain at 90 mg/kg, po after 4 hrs post dosing; type: ADME, organism-based, Cavia porcellus; design: dose 90 mg/kg, route oral; conditions: read-out: Drug uptake
[14] = Drug uptake in Hartley guinea pig cerebrospinal fluid at 10 mg/kg, po after 4 hrs post dosing; type: ADME, organism-based, Cavia porcellus; design: dose 10 mg/kg, route oral; conditions: read-out: Drug uptake
[15] = Drug uptake in Hartley guinea pig brain at 30 mg/kg, po after 4 hrs post dosing; type: ADME, organism-based, Cavia porcellus; design: dose 30 mg/kg, route oral; conditions: read-out: Drug uptake
[16] = Drug uptake in Hartley guinea pig brain at 10 mg/kg, po after 4 hrs post dosing; type: ADME, organism-based, Cavia porcellus; design: dose 10 mg/kg, route oral; conditions: read-out: Drug uptake
[17] = Plasma concentration in Hartley guinea pig at 90 mg/kg, po after 4 hrs post dosing; type: ADME, organism-based, Cavia porcellus; design: dose 90 mg/kg, route oral
[18] = Plasma concentration in Hartley guinea pig at 30 mg/kg, po after 4 hrs post dosing; type: ADME, organism-based, Cavia porcellus; design: dose 30 mg/kg, route oral
[19] = Plasma concentration in Hartley guinea pig at 10 mg/kg, po after 4 hrs post dosing; type: ADME, organism-based, Cavia porcellus; design: dose 10 mg/kg, route oral
[20] = test system: Cavia porcellus; test: Antialzheimer activity in po dosed Hartley guinea pig assessed as reduction in brain amyloid beta 40 level measured after 4 hrs post dosing; type: functional, organism-based
[21] = test system: Cavia porcellus; test: Antialzheimer activity in po dosed Hartley guinea pig assessed as reduction in brain amyloid beta 42 level measured after 4 hrs post dosing; type: functional, organism-based
[22] = test system: Cavia porcellus; test: Antialzheimer activity in Hartley guinea pig assessed as increase in brain amyloid beta 38 level at 90 mg/kg, po measured after 4 hrs post dosing relative to control; type: functional
[23] = test system: Cavia porcellus; test: Antialzheimer activity in Hartley guinea pig assessed as increase in brain amyloid beta 38 level at 30 mg/kg, po measured after 4 hrs post dosing relative to control; type: functional
[24] = test system: Cavia porcellus; test: Antialzheimer activity in Hartley guinea pig assessed as increase in brain amyloid beta 38 level at 10 mg/kg, po measured after 4 hrs post dosing relative to control; type: functional
[25] = test system: Cavia porcellus; test: Antialzheimer activity in Hartley guinea pig assessed as reduction in brain total amyloid beta level at 90 mg/kg, po measured after 4 hrs post dosing relative to control; type: functional; design: scale not given: the % may be the effect or the level left
[26] = test system: Cavia porcellus; test: Antialzheimer activity in Hartley guinea pig assessed as reduction in brain total amyloid beta level at 30 mg/kg, po measured after 4 hrs post dosing relative to control; type: functional; design: scale not given: the % may be the effect or the level left
[27] = test system: Cavia porcellus; test: Antialzheimer activity in Hartley guinea pig assessed as reduction in brain total amyloid beta level at 10 mg/kg, po measured after 4 hrs post dosing relative to control; type: functional; design: scale not given: the % may be the effect or the level left
[28] = test system: Cavia porcellus; test: Antialzheimer activity in Hartley guinea pig assessed as reduction in brain amyloid beta 40 level at 90 mg/kg, po measured after 4 hrs post dosing relative to control; type: functional; design: scale not given: the % may be the effect or the level left
[29] = test system: Cavia porcellus; test: Antialzheimer activity in Hartley guinea pig assessed as reduction in brain amyloid beta 40 level at 30 mg/kg, po measured after 4 hrs post dosing relative to control; type: functional; design: scale not given: the % may be the effect or the level left
[30] = test system: Cavia porcellus; test: Antialzheimer activity in Hartley guinea pig assessed as reduction in brain amyloid beta 40 level at 10 mg/kg, po measured after 4 hrs post dosing relative to control; type: functional; design: scale not given: the % may be the effect or the level left
[31] = test system: Cavia porcellus; test: Antialzheimer activity in Hartley guinea pig assessed as reduction in brain amyloid beta 42 level at 90 mg/kg, po measured after 4 hrs post dosing relative to control; type: functional; design: scale not given: the % may be the effect or the level left
[32] = test system: Cavia porcellus; test: Antialzheimer activity in Hartley guinea pig assessed as reduction in brain amyloid beta 42 level at 10 mg/kg, po measured after 4 hrs post dosing relative to control; type: functional; design: scale not given: the % may be the effect or the level left
[33] = test system: Cavia porcellus; test: Antialzheimer activity in Hartley guinea pig assessed as reduction in brain amyloid beta 42 level at 30 mg/kg, po measured after 4 hrs post dosing relative to control; type: functional; design: scale not given: the % may be the effect or the level left
[34] = Fraction unbound in rat plasma; type: ADME, cell-free
[35] = Fraction unbound in rat brain; type: ADME, tissue-based
[36] = Ratio of unbound drug level in brain to plasma in rat; type: ADME
[37] = Ratio of drug uptake in brain to plasma in rat at 5 mg/kg, po after 1 hr; type: ADME, organism-based; design: dose 5 mg/kg, route oral; conditions: read-out: BPR
[38] = Drug uptake in rat brain at 5 mg/kg, po after 1 hr; type: ADME, organism-based; design: dose 5 mg/kg, route oral; conditions: read-out: Drug uptake
[39] = Plasma concentration in rat at 5 mg/kg, po after 1 hr; type: ADME, organism-based; design: dose 5 mg/kg, route oral
[40] = Bioavailability in rat at 1 mg/kg, iv and 5 mg/kg, po; type: ADME, organism-based; conditions: in vivo
[41] = Volume of distribution at steady state in rat at 1 mg/kg, iv; type: ADME, organism-based; design: dose 1 mg/kg, route intravenous; conditions: in vivo, read-out: Vdss
[42] = Half life in rat at 1 mg/kg, iv; type: ADME, organism-based; design: dose 1 mg/kg, route intravenous; conditions: in vivo
[43] = Clearance in rat at 1 mg/kg, iv; type: ADME, organism-based; design: dose 1 mg/kg, route intravenous; conditions: in vivo
[44] = test system: MDR1 (human); test: Permeability from apical to basolateral side in MDCK cells expressing human MDR; type: ADME, cell-based, Canis lupus familiaris; conditions: dog, read-out: permeability
[45] = biological target: Gamma-secretase; test: Modulation of gamma secretase in HEK293 NdeltaE cells assessed as inhibition of notch signalling; type: cell-based, Homo sapiens
[46] = biological target: Cytochrome P450 3A4 (Homo sapiens, UniProt P08684); test: Inhibition of CYP3A4 (unknown origin); type: ADME
[47] = biological target: Cytochrome P450 2D6 (Homo sapiens, UniProt P10635); test: Inhibition of CYP2D6 (unknown origin); type: ADME
[48] = biological target: Cytochrome P450 2C9 (Homo sapiens, UniProt P11712); test: Inhibition of CYP2C9 (unknown origin); type: ADME
[49] = biological target: T2, Cytochrome P450 2C8 (Homo sapiens, UniProt P10632); test: Inhibition of CYP2C8 (unknown origin); type: ADME
T2 sequence (P10632 whole entry): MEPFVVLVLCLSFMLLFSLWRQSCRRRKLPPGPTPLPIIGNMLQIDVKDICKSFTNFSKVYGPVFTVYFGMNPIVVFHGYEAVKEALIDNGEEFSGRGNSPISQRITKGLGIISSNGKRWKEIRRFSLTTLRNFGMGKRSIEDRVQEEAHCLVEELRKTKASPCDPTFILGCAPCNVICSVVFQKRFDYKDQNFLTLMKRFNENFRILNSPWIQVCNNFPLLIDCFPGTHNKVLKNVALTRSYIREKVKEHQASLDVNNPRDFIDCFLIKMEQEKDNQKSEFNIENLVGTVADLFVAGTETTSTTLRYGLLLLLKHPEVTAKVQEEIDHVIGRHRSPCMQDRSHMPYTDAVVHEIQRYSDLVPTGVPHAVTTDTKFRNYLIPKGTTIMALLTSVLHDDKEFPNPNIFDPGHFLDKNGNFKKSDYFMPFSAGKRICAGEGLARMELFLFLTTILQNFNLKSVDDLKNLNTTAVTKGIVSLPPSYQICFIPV

[50] = biological target: Cytochrome P450 2C19 (Homo sapiens, UniProt P33261); test: Inhibition of CYP2C19 (unknown origin); type: ADME
[51] = Half life in human hepatocytes; type: ADME, cell-based, Hepatocyte
[52] = Apparent intrinsic clearance in human hepatocytes; type: ADME, cell-based, Hepatocyte; conditions: read-out: CLH(app)

Sequence of Cytochrome P450 3A4 (P08684 whole entry): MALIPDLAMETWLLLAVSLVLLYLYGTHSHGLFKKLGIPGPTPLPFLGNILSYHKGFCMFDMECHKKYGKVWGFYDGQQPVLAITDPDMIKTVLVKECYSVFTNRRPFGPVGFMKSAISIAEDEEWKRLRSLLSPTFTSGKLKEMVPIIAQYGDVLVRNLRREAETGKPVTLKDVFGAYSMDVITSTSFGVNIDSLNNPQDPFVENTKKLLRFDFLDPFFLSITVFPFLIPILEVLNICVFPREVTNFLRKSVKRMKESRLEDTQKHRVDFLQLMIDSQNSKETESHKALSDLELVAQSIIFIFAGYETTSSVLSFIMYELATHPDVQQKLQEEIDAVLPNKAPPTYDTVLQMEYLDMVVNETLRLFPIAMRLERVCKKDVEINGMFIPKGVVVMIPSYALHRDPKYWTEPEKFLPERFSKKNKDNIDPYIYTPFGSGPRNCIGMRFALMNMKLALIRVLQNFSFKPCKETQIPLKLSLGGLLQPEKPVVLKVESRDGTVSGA
Sequence of Cytochrome P450 2D6 (P10635 whole entry): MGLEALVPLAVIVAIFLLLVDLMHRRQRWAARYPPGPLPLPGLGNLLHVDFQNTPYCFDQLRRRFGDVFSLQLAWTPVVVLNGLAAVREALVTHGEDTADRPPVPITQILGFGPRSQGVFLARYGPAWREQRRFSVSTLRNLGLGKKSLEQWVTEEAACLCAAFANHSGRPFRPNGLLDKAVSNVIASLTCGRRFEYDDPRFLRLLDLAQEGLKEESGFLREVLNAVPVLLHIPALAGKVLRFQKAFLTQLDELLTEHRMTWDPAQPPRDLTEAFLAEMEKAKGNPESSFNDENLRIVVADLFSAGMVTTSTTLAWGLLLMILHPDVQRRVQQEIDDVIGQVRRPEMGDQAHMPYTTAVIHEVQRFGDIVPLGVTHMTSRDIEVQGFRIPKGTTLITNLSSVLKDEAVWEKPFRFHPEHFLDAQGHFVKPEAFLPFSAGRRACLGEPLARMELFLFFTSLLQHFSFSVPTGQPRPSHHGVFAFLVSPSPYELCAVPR
Sequence of Cytochrome P450 2C9 (P11712 whole entry): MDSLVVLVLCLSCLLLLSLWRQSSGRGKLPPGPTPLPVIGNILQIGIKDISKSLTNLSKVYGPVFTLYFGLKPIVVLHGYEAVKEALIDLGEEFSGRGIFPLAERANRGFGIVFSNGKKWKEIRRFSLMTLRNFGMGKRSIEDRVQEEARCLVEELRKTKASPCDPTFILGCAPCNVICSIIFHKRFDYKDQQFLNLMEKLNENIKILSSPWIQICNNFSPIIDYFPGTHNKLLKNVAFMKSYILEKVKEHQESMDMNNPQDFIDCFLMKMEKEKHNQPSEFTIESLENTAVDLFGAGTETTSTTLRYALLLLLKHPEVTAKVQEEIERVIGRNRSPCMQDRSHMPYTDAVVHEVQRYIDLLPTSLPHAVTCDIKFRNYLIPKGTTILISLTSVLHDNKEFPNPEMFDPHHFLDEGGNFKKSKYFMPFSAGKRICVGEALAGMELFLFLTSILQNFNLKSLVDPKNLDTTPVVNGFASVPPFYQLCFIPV
Sequence of Cytochrome P450 2C19 (P33261 whole entry): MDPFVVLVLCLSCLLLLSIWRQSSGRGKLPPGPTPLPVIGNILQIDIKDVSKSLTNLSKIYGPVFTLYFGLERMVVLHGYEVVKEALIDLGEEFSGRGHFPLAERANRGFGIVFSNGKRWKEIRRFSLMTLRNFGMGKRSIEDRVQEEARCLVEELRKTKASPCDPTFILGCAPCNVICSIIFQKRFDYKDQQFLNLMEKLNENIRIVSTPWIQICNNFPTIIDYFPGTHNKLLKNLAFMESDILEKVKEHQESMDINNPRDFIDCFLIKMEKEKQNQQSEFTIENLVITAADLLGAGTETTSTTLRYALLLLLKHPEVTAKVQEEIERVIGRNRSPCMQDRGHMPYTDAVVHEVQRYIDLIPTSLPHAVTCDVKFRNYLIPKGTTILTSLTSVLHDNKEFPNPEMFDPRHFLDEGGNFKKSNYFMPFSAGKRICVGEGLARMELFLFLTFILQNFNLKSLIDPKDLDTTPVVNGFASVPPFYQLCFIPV

- CLint scaled [1]: 2.42 L/h/kg
- CLint scaled [2]: < 0.582 L/h/kg
- efflux ratio [3]: 1.5
- IC50 [4]: 1.27 µM
SMILES: Cc1cn(-c2ccc3n(c2=O)CCN(CCOc2ccc(C(F)(F)F)cc2)C3=O)cn1

- IC50 [5]: > 30 µM
- solubility kinetic [6]: 95.6 µM (≈ 44.6 µg/mL)
- logD [7]: 3.32
- CLint scaled [1]: 2.86 L/h/kg
- CLint scaled [2]: < 0.48 L/h/kg
- Papp A→B [8]: 105 nm/s
- efflux ratio [3]: 1.8
- IC50 [4]: 0.101 µM
- fraction unbound [9]: 0.008
- fraction unbound [10]: 0.07
- concentration at 4 h [11]: 0.239 µM
- concentration at 4 h [12]: 0.0357 µM
- concentration at 4 h [13]: 52.4 µM
- concentration at 4 h [14]: 0.0127 µM
- concentration at 4 h [15]: 9.16 µM
- concentration at 4 h [16]: 2.91 µM
- concentration at 4 h [17]: 7.3 µM
- concentration at 4 h [18]: 0.819 µM
- concentration at 4 h [19]: 0.367 µM
- fraction unbound [34]: 0.0063
- fraction unbound [35]: 0.0084
- Kp uu [36]: 0.32
- Kp at 1 h [37]: 0.24
- concentration at 1 h [38]: 1 µg/mL
- concentration at 1 h [39]: 4.14 µg/mL
- bioavailability [40]: 88%
- Vd [41]: 0.69 L/kg
- half-life [42]: 6.88 h
- clearance [43]: 0.0846 L/h/kg
- Papp A→B [44]: 58 nm/s
- IC50 [45]: > 50 µM
- IC50 [46]: > 30 µM
- IC50 [47]: > 30 µM
- IC50 [48]: 15.4 µM
- IC50 [49]: 12.3 µM
- IC50 [50]: > 30 µM
SMILES: Cc1cn(-c2ccc3n(c2=O)CCN(CCOc2ccc(Cl)cc2C(F)(F)F)C3=O)cn1
- Activity [20]: Dose-dependent effect
- Activity [21]: Dose-dependent effect
- Activity [22]: 131%
- Activity [23]: 108%
- Activity [24]: 102%
- Activity [25]: 82%
- Activity [26]: 92%
- Activity [27]: 100%
- Activity [28]: 37%
- Activity [29]: 69%
- Activity [30]: 88%
- Activity [31]: 32%
- Activity [32]: 81%
- Activity [33]: 56%

- half-life [51]: 0.322 h
- CLint scaled [52]: 5.43 L/h/kg
- CLint scaled [2]: < 0.48 L/h/kg
- Papp A→B [8]: 104 nm/s
- efflux ratio [3]: 1.9
- IC50 [4]: 0.4 µM
SMILES: Cc1cn(-c2ccc3c(c2O)CCN(Cc2cccc(C(F)(F)F)c2)C3=O)cn1

- CLint scaled [1]: 28.9 L/h/kg
- CLint scaled [52]: < 0.168 L/h/kg
- CLint scaled [2]: 0.486 L/h/kg
- efflux ratio [3]: 1.7
- IC50 [4]: 0.41 µM
SMILES: Cc1cn(-c2ccc3n(c2=O)CCN(CC2(c4ccc(Cl)cc4)CC2)C3=O)cn1
